Measured values published in patent US12324855B2, “Method of safe administration of phosphorylated Tau peptide vaccine” (AC Immune SA, priority 2019, dated 2025).
Square brackets hold non-standard residues; d marks the D form. Ends that are not written are not given here. pS = N[C@@H](COP(=O)(O)O)C(=O)O

System: CD4+ T-cell response in PBMCs from 51 human donors
Test: EpiScreen time course T-cell proliferation and IL-2 ELISPOT assays (Example 6)
Format: cell-based
Conditions: 5 μM peptide, 51 donors; for donors responding, taking into account borderline responses and donors responding in only one of the two assays: SI≥1.90 borderline; for donors responding in both IL-2 ELISPOT and proliferation assays: SI≥2.00
Method: Two 16-mer peptides, Tau 393-408[pS396/pS404] (T3.5 having the amino acid sequence of SEQ ID NO:2) and Tau393-408 (T3.6 having the amino acid sequence of SEQ ID NO:4) were tested in EpiScreen™ time course T-cell assays for the capacity to induce CD4^+ T-cell response in 51 human donors.
EpiScreen™ Time Course T-cell Proliferation Assays and IL-2 ELISPOT Assays
PBMCs from 51 human donors were stimulated with either peptide at a final concentration of 5 μM. For each donor, a reproducibility control (cells incubated with 100 μg/mL KLH), a benchmark clinical control (cells incubated with 0.3 μM humanized A33) and a culture medium only well were also included. Proliferation and IL-2 production were evaluated after different time points.
For proliferation assays and IL-2 ELISPOT assays, an empirical threshold of a Stimulation Index (SI) equal to or greater than two (SI≥2.00) has been previously established whereby samples inducing responses above this threshold are deemed positive whereas SI≥1.90 were considered as borderline responders.
Previous EpiScreen™ time course T-cell assays with a range of biologics have shown a clear correlation between the percentage of donor T-cell responses in the EpiScreen™ assay and the level of immunogenicity observed in the clinic. In general, protein therapeutics that induce >10% positive responses in the EpiScreen™ assay are associated with a significant risk of immunogenicity in the clinic.

| Substance | donors responding, taking into account borderline responses and donors responding in only one of the two assays | donors responding in both IL-2 ELISPOT and proliferation assays |
| --- | --- | --- |
| VYK[pS]PVVSGDT[pS]PRHL [Tau 393-408 [pS396/pS404]] | 8% | 2% |
| VYKSPVVSGDTSPRHL (tau peptide) [Tau 393-408, 16-mer non-phosphorylated Tau peptide] | 8% | 4% |
